Assay [1] addresses T1, human SGLT2 (Homo sapiens, UniProt P31639, I433V).
T1 construct: expressed in transfected cells; host or cells: COS-7 cells (RIKEN CELL BANK RCB0539), transient, electroporation of KL29
T1 sequence (P31639 1-672 I433V): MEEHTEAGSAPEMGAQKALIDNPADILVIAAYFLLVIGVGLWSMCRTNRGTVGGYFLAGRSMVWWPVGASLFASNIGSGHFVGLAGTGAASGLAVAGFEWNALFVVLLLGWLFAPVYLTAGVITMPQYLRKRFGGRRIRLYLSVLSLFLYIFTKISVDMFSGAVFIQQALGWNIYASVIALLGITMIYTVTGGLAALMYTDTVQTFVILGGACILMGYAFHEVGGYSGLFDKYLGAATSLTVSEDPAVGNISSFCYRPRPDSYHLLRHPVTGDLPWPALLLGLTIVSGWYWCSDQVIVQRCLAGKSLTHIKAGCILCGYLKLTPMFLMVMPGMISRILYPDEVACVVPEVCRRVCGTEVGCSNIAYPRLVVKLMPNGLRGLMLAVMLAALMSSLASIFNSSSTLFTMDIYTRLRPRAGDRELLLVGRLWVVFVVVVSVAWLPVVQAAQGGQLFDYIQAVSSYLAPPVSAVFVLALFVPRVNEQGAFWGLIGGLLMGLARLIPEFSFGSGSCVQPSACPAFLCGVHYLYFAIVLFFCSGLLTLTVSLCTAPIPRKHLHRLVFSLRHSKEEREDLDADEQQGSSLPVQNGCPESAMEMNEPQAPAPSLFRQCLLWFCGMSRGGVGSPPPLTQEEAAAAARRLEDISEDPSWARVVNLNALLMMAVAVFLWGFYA
Nature of the assay: Assay for inhibitory effect on human SGLT2 activity (uptake of methyl-α-D-glucopyranoside). The format is cell-based. Conditions: for IC50: COS-7 cells expressing transiently human SGLT2, uptake of methyl-α-D-(U-14C)glucopyranoside, 37° C., 2 hours. How it is done:
• Assay for Inhibitory Effect on Human SGLT2 Activity • 1) Construction of the Plasmid Vector Expressing Human SGLT2
Preparation of the cDNA library for PCR amplification was performed by reverse transcription of a total RNA deprived from human kidney (Ori gene) with oligo dT as the primer, using SUPERSCRIPT Preamplification System (Gibco-BRL: LIFE TECHNOLOGIES). The DNA fragment coding for human SGLT2 was amplified by the PCR reaction, in which the human kidney cDNA library described above was used as the template and the following oligo nucleotides 0702F and 0712R, presented as Sequence Numbers 1 and 2 respectively, were used as the primers. The amplified DNA fragment was ligated into pCR-Blunt (Invitrogen), a vector for cloning, according to standard method of the kit. The Escherichia coli HB101 was transformed according to usual method and then selection of the transformants was performed on the LB agar medium containing 50 μg/mL of kanamycin. After plasmid DNA was extracted and purified from the one of the transformants, amplifying of the DNA fragment coding for human SGLT2 was performed by the PCR reaction, in which the following oligo nucleotides 0714F and 0715R, presented as Sequence Numbers 3 and 4 respectively, were used as the primers. The amplified DNA fragment was digested with restriction enzymes, Xho I and Hind III, and then purified with Wizard Purification System (Promega). This purified DNA fragment was inserted at the corresponding restriction sites of pcDNA3.1 (−) Myc/His—B (Invitrogen), a vector for expressing of fusion protein. The Escherichia coli HB101 was transformed according to usual method and then selection of the transformant was performed on the LB agar medium containing 100 μg/mL of ampicillin. After plasmid DNA was extracted and purified from this transformant, the base sequence of the DNA fragment inserted at the multi-cloning sites of the vector pcDNA3. 1 (−) Myc/His—B was analyzed. […] Sequentially, a clone in which valine is substituted for isoleucine-433 was obtained. This plasmid vector expressing human SGLT2 in which the peptide presented as Sequence Number 5 is fused to the carboxyl terminal alanine residue was designated KL29.
• 2) Preparation of the Cells Expressing Transiently Human SGLT2
KL29, the plasmid coding human SGLT2, was transfected into COS-7 cells (RIKEN CELL BANK RCB0539) by electroporation. Electroporation was performed with EC100 Electroporater (E-C APPARATUS CORPORATION) under the condition: 400 V, 1260 μF, 3.2×10^6 cells of COS-7 cell and 20 μg of KL29 in 800 μL of OPTI-MEM I medium (Gibco-BRL: LIFE TECHNOLOGIES) in the 0.4 cm type cuvette. After the gene transfer, the cells were harvested by centrifugation and resuspended with OPTI-MEM I medium (3.2 mL/cuvette). […]

For assay [2] the following is noted: normal mice; J. Med. Chem., Vol. 39, pp. 3920-3928 (1996); cited from earlier work.

In general, IC50 refers to the concentration at which inhibition is half-maximal. `CCc1ccc(Cc2c(O[C@@H]3O[C@H](CO)[C@@H](O)[C@H](O)[C@H]3O)nn(-c3ccccc3)c2C)cc1` [Example 18, 4-[(4-Ethylphenyl)methyl]-3-(β-D-glucopyranosyloxy)-5-methyl-1-phenyl-1H-pyrazole] returned an IC50 in assay [1] of 270 nM.

In assay [1], `Cc1c(Cc2ccc(OC(C)C)cc2)c(O[C@@H]2O[C@H](CO)[C@@H](O)[C@H](O)[C@H]2O)nn1-c1ccccc1` [Example 20, 3-(β-D-Glucopyranosyloxy)-4-[(4-isopropoxyphenyl)methyl]-5-methyl-1-phenyl-1H-pyrazole] displayed a half-maximal inhibitory concentration (IC50) of 200 nM. Consider `CSc1ccc(Cc2c(C(F)(F)F)[nH][nH]c2=O)cc1` [WAY-123783], for which, in assay [2], the “amount of excreted glucose” value is on record as “increased”. The compound further came in with an IC50 in assay [1] greater than 100000 nM. Further, the “inhibitory activity in human SGLT2” value in assay [1] (statement in words) is given as “extremely weak”.

The values above are taken from patent US7294618B2, “Glucopyranosyloxypyrazole derivatives and medicinal use thereof” (Kissei Pharmaceutical Co., Ltd., priority 2001, dated 2007).
